The text below walks through data of patent US20210253568A1, “AZAINDOLE DERIVATIVES AS RHO-KINASE INHIBITORS” (CHIESI FARMACEUTICI S.p.A., priority 2018, published 2021).

One experiment has as its target ROCK 2 (Homo sapiens, UniProt O75116). The experiment is described as follows: In vitro Rho kinase inhibitory activity assay (ADP-Glo), Rho kinase 2. The format is biochemical. Conditions: Ki by Cheng-Prusoff from IC50; 10 μM ATP, 25° C., expressed as range of activity. As to the method:
(§1) The effectiveness of compounds of the present invention to inhibit Rho kinase activity can be determined in a 10 μl assay containing 40 mM Tris pH7.5, 20 mM MgCl2 0.1 mg/mi BSA, 50 μM DTT and 2.5 μM peptide substrate (Myelin Basic Protein) using an ADP-Glo kit (Promega). Compounds were dissolved in DMSO such that the final concentration of DMSO was 1% in the assay. All reactions/incubations are performed at 25° C. Compound (2 ul) and either Rho kinase 1 or 2 (4 μl) were mixed and incubated for 30 mins. Reactions were initiated by addition of ATP (4 μl) such that the final concentration of ATP in the assay was 10 μM. After a 1 hour incubation 10 μl of ADP-Glo Reagent was added and after a further 45 minute incubation 20 ul of Kinase Detection Buffer was added and the mixture incubated for a further 30 minutes. The luminescent signal was measured on a luminometer. […] Compounds were tested in dose-response format and the inhibition of kinase activity was calculated at each concentration of compound. To determine the IC50 (concentration of compound required to inhibit 50% of the enzyme activity) data were fit to a plot of % inhibition vs Log10 compound concentration using a sigmoidal fit with a variable slope and fixing the maximum to 100% and the minimum to 0%. To determine the Ki values the Cheng-Prusoff equation was utilized (Ki=IC50/(1+[S]/Km).
(In general: ADP-Glo turns the ADP formed in a reaction into a luminescent signal.)

A further experiment concerns the target ROCK 1 (Homo sapiens, UniProt Q13464). As to the kind of experiment: In vitro Rho kinase inhibitory activity assay (ADP-Glo), Rho kinase 1. Format: biochemical. Conditions: Ki by Cheng-Prusoff from IC50; 10 μM ATP, 25° C., expressed as range of activity. As to the method: as §1

SMILES strings stand for the structures.

Sequence of ROCK 2 (O75116 whole entry): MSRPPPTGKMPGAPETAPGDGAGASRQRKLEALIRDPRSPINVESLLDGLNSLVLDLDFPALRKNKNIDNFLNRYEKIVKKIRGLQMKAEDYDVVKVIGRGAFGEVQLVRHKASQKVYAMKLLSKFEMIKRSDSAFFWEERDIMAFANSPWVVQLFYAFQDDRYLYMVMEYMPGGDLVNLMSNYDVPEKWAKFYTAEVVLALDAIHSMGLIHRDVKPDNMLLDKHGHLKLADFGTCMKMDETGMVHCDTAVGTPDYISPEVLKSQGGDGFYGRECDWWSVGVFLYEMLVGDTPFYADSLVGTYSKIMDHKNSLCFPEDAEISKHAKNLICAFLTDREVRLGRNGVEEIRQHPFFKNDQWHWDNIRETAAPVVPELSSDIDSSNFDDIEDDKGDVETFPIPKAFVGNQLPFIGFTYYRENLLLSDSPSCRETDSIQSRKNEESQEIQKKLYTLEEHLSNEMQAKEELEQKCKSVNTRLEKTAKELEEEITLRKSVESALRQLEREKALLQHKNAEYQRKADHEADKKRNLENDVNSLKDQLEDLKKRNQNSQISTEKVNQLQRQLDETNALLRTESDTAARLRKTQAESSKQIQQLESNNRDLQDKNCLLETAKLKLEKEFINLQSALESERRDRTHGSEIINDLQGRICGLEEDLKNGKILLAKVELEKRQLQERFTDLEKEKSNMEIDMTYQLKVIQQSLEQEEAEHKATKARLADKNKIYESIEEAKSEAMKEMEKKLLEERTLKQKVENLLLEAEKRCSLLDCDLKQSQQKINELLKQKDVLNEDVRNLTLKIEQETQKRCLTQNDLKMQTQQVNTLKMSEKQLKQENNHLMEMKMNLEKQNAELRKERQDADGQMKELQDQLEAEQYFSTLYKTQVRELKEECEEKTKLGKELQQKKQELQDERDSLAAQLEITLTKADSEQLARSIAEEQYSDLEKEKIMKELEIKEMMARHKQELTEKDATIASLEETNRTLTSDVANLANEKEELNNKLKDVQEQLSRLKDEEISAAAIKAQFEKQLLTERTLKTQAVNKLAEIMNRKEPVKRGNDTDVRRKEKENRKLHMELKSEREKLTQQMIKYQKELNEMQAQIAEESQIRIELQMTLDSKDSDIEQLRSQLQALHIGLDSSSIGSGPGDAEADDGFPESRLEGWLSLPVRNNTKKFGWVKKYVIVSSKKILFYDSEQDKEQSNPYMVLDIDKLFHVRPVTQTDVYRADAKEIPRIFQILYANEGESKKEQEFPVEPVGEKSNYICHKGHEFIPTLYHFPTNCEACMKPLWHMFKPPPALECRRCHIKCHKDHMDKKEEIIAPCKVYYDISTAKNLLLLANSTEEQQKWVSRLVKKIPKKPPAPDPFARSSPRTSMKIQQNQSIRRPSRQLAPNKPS
Sequence of ROCK 1 (Q13464 whole entry): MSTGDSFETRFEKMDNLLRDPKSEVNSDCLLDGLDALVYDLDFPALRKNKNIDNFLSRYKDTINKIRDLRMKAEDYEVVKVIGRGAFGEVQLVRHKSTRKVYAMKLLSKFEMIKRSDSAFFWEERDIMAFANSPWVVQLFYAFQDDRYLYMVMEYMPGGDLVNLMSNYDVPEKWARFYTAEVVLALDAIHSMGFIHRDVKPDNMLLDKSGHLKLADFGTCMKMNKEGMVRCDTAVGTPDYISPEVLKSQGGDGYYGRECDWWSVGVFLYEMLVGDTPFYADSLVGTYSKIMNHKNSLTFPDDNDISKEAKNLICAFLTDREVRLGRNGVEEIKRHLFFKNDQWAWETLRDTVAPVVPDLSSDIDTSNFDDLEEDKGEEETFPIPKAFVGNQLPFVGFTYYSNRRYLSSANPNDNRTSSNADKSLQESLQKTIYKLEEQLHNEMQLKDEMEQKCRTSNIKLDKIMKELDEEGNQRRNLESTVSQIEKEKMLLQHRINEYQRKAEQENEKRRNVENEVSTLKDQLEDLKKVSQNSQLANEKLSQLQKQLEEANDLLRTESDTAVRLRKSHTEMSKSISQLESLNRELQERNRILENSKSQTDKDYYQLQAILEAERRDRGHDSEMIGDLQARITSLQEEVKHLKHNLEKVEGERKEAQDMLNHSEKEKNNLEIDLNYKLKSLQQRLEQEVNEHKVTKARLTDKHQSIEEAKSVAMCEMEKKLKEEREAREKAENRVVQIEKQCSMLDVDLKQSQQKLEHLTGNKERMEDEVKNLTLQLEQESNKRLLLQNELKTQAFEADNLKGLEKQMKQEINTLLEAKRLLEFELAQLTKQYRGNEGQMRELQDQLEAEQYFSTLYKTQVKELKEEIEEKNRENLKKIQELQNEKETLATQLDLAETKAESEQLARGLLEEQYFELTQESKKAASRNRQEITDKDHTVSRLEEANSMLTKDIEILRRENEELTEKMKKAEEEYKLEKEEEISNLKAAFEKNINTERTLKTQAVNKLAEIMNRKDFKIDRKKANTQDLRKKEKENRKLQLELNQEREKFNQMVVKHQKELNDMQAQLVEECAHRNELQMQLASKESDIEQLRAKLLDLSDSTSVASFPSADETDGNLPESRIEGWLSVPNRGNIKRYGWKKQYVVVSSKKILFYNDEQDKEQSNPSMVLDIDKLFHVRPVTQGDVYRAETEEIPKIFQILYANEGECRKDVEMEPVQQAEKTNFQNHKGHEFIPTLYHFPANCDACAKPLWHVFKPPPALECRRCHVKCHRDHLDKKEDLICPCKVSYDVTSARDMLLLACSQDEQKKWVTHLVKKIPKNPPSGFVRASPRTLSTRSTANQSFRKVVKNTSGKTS

One may read the Ki as a measure of affinity in units of concentration, obtained from inhibition or displacement. Consider `CN(C(=O)Nc1cc(-c2c[nH]c3nccc(Oc4ccc5c(c4)CNCC5)c23)ccn1)C1CCOCC1` [Example 48, 1-methyl-1-(tetrahydro-2H-pyran-4-yl)-3-(4-(4-((1,2,3,4-tetrahydroisoquinolin-7-yl)oxy)-1H-pyrrolo[2,3-b]pyridin-3-yl)pyridin-2-yl)urea], for which the Ki at ROCK 2 is below 3 nM; on ROCK 1 it was 3 to 30 nM.

Turning to `c1ccc(CNc2cc(-c3c[nH]c4nccc(Oc5cnc6c(c5)CNCC6)c34)ccn2)cc1` [Example 49, N-benzyl-4-(4-((5,6,7,8-tetrahydro-1,6-naphthyridin-3-yl)oxy)-1H-pyrrolo[2,3-b]pyridin-3-yl)pyridin-2-amine], the Ki at ROCK 2 and at ROCK 1 was above 30 nM throughout.

`O=C(Nc1cc(-c2c[nH]c3nccc(Oc4ccc5c(c4)CNCC5)c23)ncn1)c1ccccc1` [Example 50, N-(6-(4-((1,2,3,4-tetrahydroisoquinolin-7-yl)oxy)-1H-pyrrolo[2,3-b]pyridin-3-yl)pyrimidin-4-yl)benzamide]: the Ki at ROCK 2 was below 3 nM; on ROCK 1, 3 to 30 nM.

`c1ccc(CNc2cncc(-c3c[nH]c4nccc(Oc5ccc6c(c5)CNCC6)c34)c2)cc1` [Example 51, N-benzyl-5-(4-((1,2,3,4-tetrahydroisoquinolin-7-yl)oxy)-1H-pyrrolo[2,3-b]pyridin-3-yl)pyridin-3-amine]: the values for the Ki at ROCK 2 and on ROCK 1 were below 3 nM and 3 to 30 nM, respectively.

For the compound `C[C@@H](Nc1cc(-c2c[nH]c3nccc(Oc4ccc5c(c4)CNCC5)c23)ncn1)c1ccccc1` [Example 52, (R)-N-(1-phenylethyl)-6-(4-((1,2,3,4-tetrahydroisoquinolin-7-yl)oxy)-1H-pyrrolo[2,3-b]pyridin-3-yl)pyrimidin-4-amine], the inhibitory constant (Ki) at ROCK 2 and on ROCK 1 was below 3 nM throughout.

On to `c1ccc(CCNc2cc(-c3c[nH]c4nccc(Oc5ccc6c(c5)CNCC6)c34)ncn2)cc1` [Example 53, N-phenethyl-6-(4-((1,2,3,4-tetrahydroisoquinolin-7-yl)oxy)-1H-pyrrolo[2,3-b]pyridin-3-yl)pyrimidin-4-amine], for which the Ki on ROCK 2 and on ROCK 1 was below 3 nM each time.

Regarding `C[C@H](Nc1cc(-c2c[nH]c3nccc(Oc4ccc5c(c4)CNCC5)c23)ncn1)c1ccccc1` [Example 54, (S)-N-(1-phenylethyl)-6-(4-((1,2,3,4-tetrahydroisoquinolin-7-yl)oxy)-1H-pyrrolo[2,3-b]pyridin-3-yl)pyrimidin-4-amine], the figures for the inhibitory constant (Ki) on ROCK 2 and at ROCK 1 were below 3 nM and 3 to 30 nM, respectively.

In the case of `c1cncc(CCNc2cc(-c3c[nH]c4nccc(Oc5ccc6c(c5)CNCC6)c34)ncn2)c1` [Example 55, N-(2-(pyridin-3-yl)ethyl)-6-(4-((1,2,3,4-tetrahydroisoquinolin-7-yl)oxy)-1H-pyrrolo[2,3-b]pyridin-3-yl)pyrimidin-4-amine], the inhibitory constant (Ki) on ROCK 2 and on ROCK 1 was below 3 nM in each case.

On to `c1ccc(CNc2cc(-c3c[nH]c4ncnc(Oc5ccc6c(c5)CNCC6)c34)ccn2)cc1` [Example 56, N-benzyl-4-(4-((1,2,3,4-tetrahydroisoquinolin-7-yl)oxy)-7H-pyrrolo[2,3-d]pyrimidin-5-yl)pyridin-2-amine], for which the inhibition constant Ki at ROCK 2 was below 3 nM; at ROCK 1, 3 to 30 nM.
